# From patent publication US20070196406A1, “1,3-Dimethylbutyl carboxanilides for controlling undesirable micro-organisms” (priority 2003, published 2007)
# Legend:
# [1] = tested on: Puccinia recondita; assay: Puccinia test (wheat)/protective; assay type: in vivo; details: 240 h, wheat plants, protective spray, evaluation 10 days after inoculation, read-out: Efficacy in %
# Protocol: Puccinia Test (Wheat)/Protective
# Solvent: 50 parts by weight of N,N-dimethylacetamide
# Emulsifier: 1 part by weight of alkylaryl polyglycol ether
# (§1) To produce a suitable preparation of active compound, 1 part by weight of active compound is mixed with the stated amounts of solvent and emulsifier, and the concentrate is diluted with water to the desired concentration.
# To test for protective activity, young plants are sprayed with the preparation of active compound at the stated application rate. After the spray coating has dried on, the plants are sprayed with a conidia suspension of Puccinia recondita. The plants remain in an incubation cabinet at 20° C. and 100% relative atmospheric humidity for 48 hours.
# The plants are then placed in a greenhouse at a temperature of about 20° C. and a relative atmospheric humidity of 80% to promote the development of rust pustules.
# (§2) Evaluation is carried out 10 days after the inoculation. 0% means an efficacy which corresponds to that of the control, whereas an efficacy of 100% means that no infection is observed.
# [2] = logP determination by HPLC on a reversed-phase column (EEC Directive 79/831 Annex V.A8); assay type: physicochemical; details: reversed-phase C18 HPLC column, pH 2.3, C 18 reversed phase, 43° C.
# Protocol: The logP values given in the Preparation Examples and tables above are determined in accordance with EEC Directive 79/831 Annex V.A8 by HPLC (High Performance Liquid Chromatography) on a reversed-phase column (C 18). Temperature: 43° C.
# The determination is carried out in the acidic range at pH 2.3 using the mobile phases 0.1% aqueous phosphoric acid and acetonitrile; linear gradient from 10% acetonitrile to 90% acetonitrile.
# Calibration is carried out using unbranched alkan-2-ones (with 3 to 16 carbon atoms) with known logP values (determination of the logP values by the retention times using linear interpolation between two successive alkanones).
# [3] = tested on: Podosphaera leucotricha; assay: Podosphaera test (apple)/protective; assay type: in vivo; details: 240 h, apple plants, protective spray, evaluation 10 days after inoculation, read-out: Efficacy in %
# Protocol: Podosphaera Test (Apple)/Protective
# • Solvents: 24.5 parts by weight of acetone • 24.5 parts by weight of dimethylacetamide • Emulsifier: 1 part by weight of alklylaryl polyglycol ether
# (§3) To produce a suitable preparation of active compound, 1 part by weight of active compound is mixed with the stated amounts of solvents and emulsifier, and the concentrate is diluted with water to the desired concentration.
# To test for protective activity, young plants are sprayed with the preparation of active compound at the stated application rate. After the spray coating has dried on, the plants are inoculated with an aqueous spore suspension of the apple mildew pathogen Podosphaera leucotricha. The plants are then placed in a greenhouse at about 23° C. and a relative atmospheric humidity of about 70%.
# as §2
# [4] = tested on: Venturia inaequalis; assay: Venturia test (apple)/protective; assay type: in vivo; details: 240 h, apple plants, protective spray, evaluation 10 days after inoculation, read-out: Efficacy in %
# Protocol: Venturia Test (Apple)/Protective
# (§4) • Solvents: 24.5 parts by weight of acetone • 24.5 parts by weight of dimethylacetamide • Emulsifier: 1 part by weight of alkylaryl polyglycol ether
# as §3
# To test for protective activity, young plants are sprayed with the preparation of active compound at the stated application rates. After the spray coating has dried on, the plants are inoculated with an aqueous conidia suspension of the apple scab pathogen Venturia inaequalis and then remain in an incubation cabinet about 20° C. and 100% relative atmospheric humidity for 1 day.
# The plants are then placed in a greenhouse at about 21° C. and a relative atmospheric humidity of about 90%.
# as §2
# [5] = tested on: Botrytis cinerea; assay: Botrytis test (bean)/protective; assay type: in vivo; details: 48 h, bean plants, protective spray, evaluation two days after inoculation, read-out: Efficacy in %
# Protocol: Botrytis Test (Bean)/Protective
# as §4, §1
# To test for protective activity, young plants are sprayed with the preparation of active compound at the stated application rate. After the spray coating has dried on, 2 small pieces of agar colonized by Botrytis cinerea are placed under each leaf. The inoculated plants are placed in a dark chamber at about 20° C. and 100% relative atmospheric humidity.
# Two days after the inoculation, the size of the infected areas on the leaves is evaluated. 0% means an efficacy which corresponds to that of the control, whereas an efficacy of 100% means that no infection is observed.
smiles,measurement,setting,value
Cc1nc(Cl)sc1C(=O)Nc1ccccc1C(C)CC(C)C (stereo not shown),pest or weed control at 500 g/ha,[1],100%
CC(C)CC(C)c1cc(F)ccc1NC(=O)c1cccnc1Cl (stereo not shown),pest or weed control at 500 g/ha,[1],100%
CC(C)CC(C)c1cc(F)ccc1NC(=O)c1cn(C)nc1Cl (stereo not shown),pest or weed control at 500 g/ha,[1],100%
Cc1occc1C(=O)Nc1ccc(F)cc1C(C)CC(C)C (stereo not shown),pest or weed control at 500 g/ha,[1],100%
"CC(C)CC(C)c1ccccc1NC(=O)c1cn(C)nc1C(Cl)Cl (stereo not shown) [Example 1, 3-(dichloromethyl)-1-methyl-N-[2-(1,3-dimethylbutyl)phenyl]-1H-pyrazole-4-carboxamide]",chromatographic logP,[2],3.74
"CC(C)CC(C)c1ccccc1NC(=O)c1cn(C)nc1C=O (stereo not shown) [Example 2, N-[2-(1,3-dimethylbutyl)phenyl]-3-formyl-1-methyl-1H-pyrazole-4-carboxamide]",chromatographic logP,[2],3.64
"COc1nc(C)sc1C(=O)Nc1ccccc1C(C)CC(C)C (stereo not shown) [Example 3, N-[2-(1,3-dimethylbutyl)phenyl]-4-methoxy-2-methyl-1,3-thiazole-5-carboxamide]",chromatographic logP,[2],4.45
"Cc1nc(O)c(C(=O)Nc2ccccc2C(C)CC(C)C)s1 (stereo not shown) [Example 4, N-[2-(1,3-dimethylbutyl)phenyl]-4-hydroxy-2-methyl-1,3-thiazole-5-carboxamide]",chromatographic logP,[2],2.68
COC(=O)c1cn(C)nc1C=O [Example X-1],chromatographic logP,[2],0.46
CCOC(=O)c1sc(C)nc1OC [II-1],chromatographic logP,[2],1.9
COc1nc(C)sc1C(=O)O [II-2],chromatographic logP,[2],0.77
CCOC(=O)c1cn(C)nc1OC [II-4],chromatographic logP,[2],1.14
CCOC(=O)c1sc(C)nc1OC(F)F [II-6],chromatographic logP,[2],2.54
Cc1nc(OC(F)F)c(C(=O)O)s1 [II-7],chromatographic logP,[2],1.29
Cn1cc(C(=O)O)c(C=O)n1 [XI-1],chromatographic logP,[2],-0.19
COC(=O)c1cn(C)nc1C(Cl)Cl [XII-1],chromatographic logP,[2],1.8
CC(C)CC(C)c1ccccc1NC(=O)c1scnc1Cl (stereo not shown) [drawing 82],pest or weed control at 100 g/ha,[3],100%
Cc1sccc1C(=O)Nc1ccccc1C(C)CC(C)C (stereo not shown) [drawing 83],pest or weed control at 100 g/ha,[3],100%
CC(C)CC(C)c1ccccc1NC(=O)c1ccoc1C(F)(F)F (stereo not shown) [drawing 84],pest or weed control at 100 g/ha,[3],98%
CC(C)CC(C)c1ccccc1NC(=O)c1cn(C)nc1Cl (stereo not shown) [drawing 85],pest or weed control at 100 g/ha,[3],100%
CC(C)CC(C)c1ccccc1NC(=O)c1cn(C)nc1C(C)F (stereo not shown) [drawing 86],pest or weed control at 100 g/ha,[3],100%
CC(C)CC(C)c1cc(F)ccc1NC(=O)c1cn(C)nc1C(F)(F)F (stereo not shown) [drawing 87],pest or weed control at 100 g/ha,[3],88%
CC(C)CC(C)c1cc(F)ccc1NC(=O)c1cn(C)nc1C(F)F (stereo not shown) [drawing 88],pest or weed control at 100 g/ha,[3],100%
Cc1sccc1C(=O)Nc1ccc(F)cc1C(C)CC(C)C (stereo not shown) [drawing 89],pest or weed control at 100 g/ha,[3],100%
Cc1nc(C(F)(F)F)c(C(=O)Nc2ccc(F)cc2C(C)CC(C)C)s1 (stereo not shown) [drawing 90],pest or weed control at 100 g/ha,[3],100%
Cc1ccsc1C(=O)Nc1ccc(F)cc1C(C)CC(C)C (stereo not shown) [drawing 91],pest or weed control at 100 g/ha,[3],99%
Cc1nc(C(F)F)c(C(=O)Nc2ccc(F)cc2C(C)CC(C)C)s1 (stereo not shown) [drawing 92],pest or weed control at 100 g/ha,[3],100%
CC1=C(C(=O)Nc2ccc(F)cc2C(C)CC(C)C)SCCO1 (stereo not shown) [drawing 93],pest or weed control at 100 g/ha,[3],100%
CC(C)CC(C)c1ccccc1NC(=O)c1scnc1Cl (stereo not shown) [drawing 94],pest or weed control at 100 g/ha,[4],99%
Cc1sccc1C(=O)Nc1ccccc1C(C)CC(C)C (stereo not shown) [drawing 95],pest or weed control at 100 g/ha,[4],100%
CC(C)CC(C)c1ccccc1NC(=O)c1ccoc1C(F)(F)F (stereo not shown) [drawing 96],pest or weed control at 100 g/ha,[4],96%
CC(C)CC(C)c1ccccc1NC(=O)c1cn(C)nc1Cl (stereo not shown) [drawing 97],pest or weed control at 100 g/ha,[4],100%
CC(C)CC(C)c1ccccc1NC(=O)c1cn(C)nc1C(C)F (stereo not shown) [drawing 98],pest or weed control at 100 g/ha,[4],100%
CC(C)CC(C)c1cc(F)ccc1NC(=O)c1cn(C)nc1C(F)(F)F (stereo not shown) [drawing 99],pest or weed control at 100 g/ha,[4],100%
CC(C)CC(C)c1cc(F)ccc1NC(=O)c1cn(C)nc1C(F)F (stereo not shown) [drawing 100],pest or weed control at 100 g/ha,[4],100%
Cc1sccc1C(=O)Nc1ccc(F)cc1C(C)CC(C)C (stereo not shown) [drawing 101],pest or weed control at 100 g/ha,[4],94%
Cc1nc(C(F)(F)F)c(C(=O)Nc2ccc(F)cc2C(C)CC(C)C)s1 (stereo not shown) [drawing 102],pest or weed control at 100 g/ha,[4],100%
Cc1ccsc1C(=O)Nc1ccc(F)cc1C(C)CC(C)C (stereo not shown) [drawing 103],pest or weed control at 100 g/ha,[4],100%
Cc1nc(C(F)F)c(C(=O)Nc2ccc(F)cc2C(C)CC(C)C)s1 (stereo not shown) [drawing 104],pest or weed control at 100 g/ha,[4],100%
CC1=C(C(=O)Nc2ccc(F)cc2C(C)CC(C)C)SCCO1 (stereo not shown) [drawing 105],pest or weed control at 100 g/ha,[4],100%
CC(C)CC(C)c1ccccc1NC(=O)c1scnc1Cl (stereo not shown) [drawing 106],pest or weed control at 100 g/ha,[5],99%
Cc1sccc1C(=O)Nc1ccccc1C(C)CC(C)C (stereo not shown) [drawing 107],pest or weed control at 100 g/ha,[5],97%
CC(C)CC(C)c1ccccc1NC(=O)c1cn(C)nc1Cl (stereo not shown) [drawing 108],pest or weed control at 100 g/ha,[5],100%
CC(C)CC(C)c1ccccc1NC(=O)c1cn(C)nc1C(C)F (stereo not shown) [drawing 109],pest or weed control at 500 g/ha,[5],99%
CC(C)CC(C)c1cc(F)ccc1NC(=O)c1cn(C)nc1C(F)(F)F (stereo not shown) [drawing 110],pest or weed control at 500 g/ha,[5],99%
CC(C)CC(C)c1cc(F)ccc1NC(=O)c1cn(C)nc1C(F)F (stereo not shown) [drawing 111],pest or weed control at 500 g/ha,[5],100%
Cc1sccc1C(=O)Nc1ccc(F)cc1C(C)CC(C)C (stereo not shown) [drawing 112],pest or weed control at 500 g/ha,[5],100%
Cc1nc(C(F)(F)F)c(C(=O)Nc2ccc(F)cc2C(C)CC(C)C)s1 (stereo not shown) [drawing 113],pest or weed control at 500 g/ha,[5],100%
Cc1sccc1C(=O)Nc1ccccc1C(C)CC(C)C (stereo not shown) [drawing 118],pest or weed control at 500 g/ha,[1],100%
CC(C)CC(C)c1ccccc1NC(=O)c1ccoc1C(F)(F)F (stereo not shown) [drawing 119],pest or weed control at 500 g/ha,[1],100%
CC(C)CC(C)c1ccccc1NC(=O)c1cn(C)nc1Cl (stereo not shown) [drawing 120],pest or weed control at 500 g/ha,[1],100%
CC(C)CC(C)c1cc(F)ccc1NC(=O)c1cn(C)nc1C(F)(F)F (stereo not shown) [drawing 121],pest or weed control at 500 g/ha,[1],100%
CC(C)CC(C)c1cc(F)ccc1NC(=O)c1cn(C)nc1C(F)F (stereo not shown) [drawing 124],pest or weed control at 500 g/ha,[1],100%
Cc1sccc1C(=O)Nc1ccc(F)cc1C(C)CC(C)C (stereo not shown) [drawing 125],pest or weed control at 500 g/ha,[1],100%
Cc1nc(C(F)(F)F)c(C(=O)Nc2ccc(F)cc2C(C)CC(C)C)s1 (stereo not shown) [drawing 127],pest or weed control at 500 g/ha,[1],100%
Cc1ccsc1C(=O)Nc1ccc(F)cc1C(C)CC(C)C (stereo not shown) [drawing 128],pest or weed control at 500 g/ha,[1],100%
Cc1nc(C(F)F)c(C(=O)Nc2ccc(F)cc2C(C)CC(C)C)s1 (stereo not shown) [drawing 129],pest or weed control at 500 g/ha,[1],100%
CC1=C(C(=O)Nc2ccc(F)cc2C(C)CC(C)C)SCCO1 (stereo not shown) [drawing 130],pest or weed control at 500 g/ha,[1],100%
